Source: patent publication US11584747B2, “Substituted pyridopyrimidinonyl compounds useful as T cell activators” (BRISTOL-MYERS SQUIBB COMPANY, priority 2019, dated 2023)
Like-named read-outs stand apart in the source and are kept apart here.

What was measured:
human DGKζ = human DGKζ (Homo sapiens (Human), UniProt Q13574); assay: DGKζ LIPGLO assay (extruded liposome substrate, ADP-Glo luminescence); format: biochemical
human DGKα = human DGKα (Homo sapiens (Human), UniProt P23743); assay: DGKα ADPGLO assay (detergent/lipid micelle substrate); format: biochemical
Sequence of human DGKα (P23743 whole entry, looked up, the tested form may be a part): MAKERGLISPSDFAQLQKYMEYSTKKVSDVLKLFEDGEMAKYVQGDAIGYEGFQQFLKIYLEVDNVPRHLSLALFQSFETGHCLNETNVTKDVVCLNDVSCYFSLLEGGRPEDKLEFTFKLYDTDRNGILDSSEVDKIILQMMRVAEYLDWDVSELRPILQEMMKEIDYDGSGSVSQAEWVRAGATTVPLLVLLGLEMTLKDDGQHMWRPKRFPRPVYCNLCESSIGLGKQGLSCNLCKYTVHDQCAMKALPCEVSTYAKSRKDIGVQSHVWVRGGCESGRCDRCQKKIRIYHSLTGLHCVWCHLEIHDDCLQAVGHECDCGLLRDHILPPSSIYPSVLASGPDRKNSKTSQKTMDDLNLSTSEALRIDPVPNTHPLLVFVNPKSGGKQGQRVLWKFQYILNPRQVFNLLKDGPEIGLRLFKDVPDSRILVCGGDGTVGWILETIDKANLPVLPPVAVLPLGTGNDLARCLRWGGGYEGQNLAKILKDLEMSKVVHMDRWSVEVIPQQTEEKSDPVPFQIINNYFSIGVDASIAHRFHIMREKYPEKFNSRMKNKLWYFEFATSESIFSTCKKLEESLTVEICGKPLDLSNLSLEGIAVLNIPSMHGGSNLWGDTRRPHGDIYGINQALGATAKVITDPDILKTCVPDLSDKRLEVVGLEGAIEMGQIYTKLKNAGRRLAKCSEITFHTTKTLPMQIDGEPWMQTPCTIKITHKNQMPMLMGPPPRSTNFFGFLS
Method: DGK Alpha ADPGLO (Truncated) IC50 (uM)
The detergent/lipid micelle was prepared by combining 15 g phosphatidylserine (Avanti 840035P) and 1 g diacylglycerol (8008110) and dissolving into 150 mL chloroform in a 2 L round bottom flask. Chloroform was removed under high vacuum by rotary evaporation. […] The lipid/detergent solution was split into 5 mL aliquots and stored at −80° C.

[1] = system: human venous whole blood (IFN-γ); assay: Human whole blood IFN-γ assay; format: cell-based
Method: Human venous whole blood (22.5 μL per well), obtained from healthy donors, was pre-treated with compounds for one hour at 37° C. in a humidified 95% air/5% CO2 incubator. The blood was stimulated with 2.5 μL anti-human CD3 and anti-CD28 mAb at a final concentration of 1 μg/mL each for 24 hours at 37° C. IFN-γ in the supernatants was measured using AlphLISA kit (Cat #AL217).

[2] = liposome assay, read-out: DGK zeta LIPGLO IC50
[3] = truncated DGK alpha, read-out: DGK alpha ADPGLO (Truncated) IC50
[4] = whole blood, normalized to 3 μM reference compound as 100% activation, read-out: IFN-γ Whole Blood Normalized EC50
[5] = Homo sapiens, whole blood, normalized to 3 μM reference compound as 100% activation, read-out: IFN-γ Whole Blood Normalized EC50
[6] = liposome (LIPGLO) assay, read-out: DGK zeta (liposome assay) IC50
[7] = ADPGLO assay, read-out: DGK alpha ADPGLO IC50
[8] = human whole blood, anti-CD3 plus anti-CD28 stimulation, 24 hours, read-out: IFN-γ Whole Blood EC50

Sequence of human DGKζ (Q13574 other isoform, or with tags, fused parts or gaps): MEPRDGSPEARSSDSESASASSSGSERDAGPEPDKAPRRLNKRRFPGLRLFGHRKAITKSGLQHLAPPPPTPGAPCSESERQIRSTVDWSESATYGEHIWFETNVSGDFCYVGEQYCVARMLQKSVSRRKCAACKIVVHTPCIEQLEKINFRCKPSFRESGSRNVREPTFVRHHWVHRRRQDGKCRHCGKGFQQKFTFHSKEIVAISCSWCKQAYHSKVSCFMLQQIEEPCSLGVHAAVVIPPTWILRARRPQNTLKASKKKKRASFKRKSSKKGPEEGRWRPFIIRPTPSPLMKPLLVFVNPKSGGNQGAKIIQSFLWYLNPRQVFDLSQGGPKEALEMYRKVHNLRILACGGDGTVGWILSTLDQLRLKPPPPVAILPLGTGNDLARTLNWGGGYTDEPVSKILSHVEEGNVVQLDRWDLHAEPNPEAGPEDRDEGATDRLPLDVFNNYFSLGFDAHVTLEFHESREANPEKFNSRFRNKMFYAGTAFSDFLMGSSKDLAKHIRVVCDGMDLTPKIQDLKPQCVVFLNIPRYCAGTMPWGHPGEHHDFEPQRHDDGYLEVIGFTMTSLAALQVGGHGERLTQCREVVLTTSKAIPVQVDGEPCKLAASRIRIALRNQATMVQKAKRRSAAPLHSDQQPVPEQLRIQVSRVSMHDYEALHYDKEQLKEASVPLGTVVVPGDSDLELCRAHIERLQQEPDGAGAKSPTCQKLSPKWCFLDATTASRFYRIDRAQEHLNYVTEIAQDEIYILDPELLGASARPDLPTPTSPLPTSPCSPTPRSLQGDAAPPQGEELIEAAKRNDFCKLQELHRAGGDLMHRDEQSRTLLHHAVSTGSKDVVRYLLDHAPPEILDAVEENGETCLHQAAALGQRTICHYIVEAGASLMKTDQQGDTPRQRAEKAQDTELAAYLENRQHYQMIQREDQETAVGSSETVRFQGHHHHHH

SMILES | IC50 (human DGKζ; [2]) | IC50 (human DGKα; [3]) | IC50 (human DGKζ; [6]) | IC50 (human DGKα; [7]) | EC50 [1, 8] | EC50 ([1]; Homo sapiens, 24 h, human whole blood, anti-CD3 plus anti-CD28 stimulation, 24 hours, read-out: IFN-γ Whole Blood EC50) | EC50 [1, 4] | EC50 [1, 5]
CC[C@H]1CN(C(C)c2ccc(CN3CCN(C(C)=O)CC3)cc2)[C@H](CC)CN1c1nc(=O)n(C)c2ccc(C#N)nc12 (stereo partly drawn) [Example 284, 4-((2S,5R)-4-(1-(4-((4-acetylpiperazin-1-yl)methyl)phenyl)ethyl)-2,5-diethylpiperazin-1-yl)-1-methyl-2-oxo-1,2-dihydropyrido[3,2-d]pyrimidine-6-carbonitrile] | 25100 nM | 3170 nM | – | – | – | – | 13000 nM | –
CCC(c1ccc(C2CC2)cc1)N1C[C@H](CC)N(c2nc(=O)n(C)c3ccc(C#N)nc23)C[C@H]1CC (stereo partly drawn) [Example 201, 4-((2S,5R)-4-(1-(4-cyclopropylphenyl)propyl)-2,5-diethylpiperazin-1-yl)-1-methyl-2-oxo-1,2-dihydropyrido[3,2-d]pyrimidine-6-carbonitrile] | 900 nM | 160 nM | – | – | – | – | – | 230 nM
CCC(c1ccc(OCC2CC2)cc1)N1C[C@H](C)N(c2nc(=O)n(C)c3ccc(C#N)nc23)C[C@H]1CC (stereo partly drawn) [Example 309, 4-((2S,5R)-4-(1-(4-(cyclopropylmethoxy)phenyl)propyl)-5-ethyl-2-methylpiperazin-1-yl)-1-methyl-2-oxo-1,2-dihydropyrido[3,2-d]pyrimidine-6-carbonitrile] | – | – | 850 nM | 350 nM | 1480 nM | – | – | –
CC(c1ccc(CN2CCOC(C)(C)C2)cc1)N1C[C@H](C)N(c2nc(=O)n(C)c3ccc(C#N)nc23)C[C@H]1C (single isomer, unassigned) [Example 386] | – | – | 5070 nM | 2700 nM | 2490 nM | – | – | –
CCC(c1ccc(OCC2CC2)cc1)N1C[C@H](CC)N(c2nc(=O)n(C)c3ccc(C#N)nc23)C[C@H]1CC (stereo partly drawn) [Example 217, 4-((2S,5R)-4-(1-(4-(cyclopropylmethoxy)phenyl)propyl)-2,5-diethylpiperazin-1-yl)-1-methyl-2-oxo-1,2-dihydropyrido[3,2-d]pyrimidine-6-carbonitrile] | 4260 nM | 1660 nM | – | – | – | – | 870 nM | –
CCC(c1ccc(OC(F)F)cc1F)N1C[C@H](CC)N(c2nc(=O)n(C)c3ccc(C#N)nc23)C[C@H]1CC (stereo partly drawn) [Example 233, 4-((2S,5R)-4-(1-(4-(difluoromethoxy)-2-fluorophenyl)propyl)-2,5-diethylpiperazin-1-yl)-1-methyl-2-oxo-1,2-dihydropyrido[3,2-d]pyrimidine-6-carbonitrile] | 950 nM | 170 nM | – | – | – | – | 2770 nM | –
CCC(c1ccc(C(F)(F)F)cc1)N1C[C@H](CC)N(c2nc(=O)n(C)c3ccc(OC)nc23)C[C@H]1CC (stereo partly drawn) [Example 436, 4-((2S,5R)-2,5-diethyl-4-(1-(4-(trifluoromethyl)phenyl)propyl)piperazin-1-yl)-6-methoxy-1-methylpyrido[3,2-d]pyrimidin-2(1H)-one] | – | – | 250000 nM | 12200 nM | 20000 nM | – | – | –
CC[C@H]1CN(C(C)c2ccc(OC(C)(C)COC)cc2)[C@H](CC)CN1c1nc(=O)n(C)c2ccc(C#N)nc12 (some centres unmarked) [Example 189] | 17000 nM | 850 nM | – | – | – | – | 450 nM | –
CC[C@H]1CN(C(C)c2ccc3oc(=O)n(C)c3c2)[C@H](CC)CN1c1nc(=O)n(C)c2ccc(C#N)nc12 (stereo partly drawn) [Example 202, 4-((2S,5R)-2,5-diethyl-4-(1-(3-methyl-2-oxo-2,3-dihydrobenzo[d]oxazol-5-yl)ethyl)piperazin-1-yl)-1-methyl-2-oxo-1,2-dihydropyrido[3,2-d]pyrimidine-6-carbonitrile] | 420 nM | 360 nM | – | – | – | – | 160 nM | –
CC[C@H]1CN(C(C)c2cnc(N3CCOCC3)nc2)[C@H](CC)CN1c1nc(=O)n(C)c2ccc(C#N)nc12 (stereo partly drawn) [Example 207, 4-((2S,5R)-2,5-diethyl-4-(1-(2-morpholinopyrimidin-5-yl)ethyl)piperazin-1-yl)-1-methyl-2-oxo-1,2-dihydropyrido[3,2-d] pyrimidine-6-carbonitrile] | 970 nM | 620 nM | – | – | – | – | 1060 nM | –
CC[C@H]1CN(C(C)c2ccc(C(F)(F)F)cc2)[C@H](CC)CN1c1nc(=O)n(C)c2ccc(OCCOC)nc12 (stereo partly drawn) [Example 433, 4-((2S,5R)-2,5-diethyl-4-(1-(4-(trifluoromethyl)phenyl)ethyl)piperazin-1-yl)-6-(2-methoxyethoxy)-1-methylpyrido[3,2-d]pyrimidin-2(1H)-one] | – | – | 125000 nM | 125000 nM | – | 20000 nM | – | –
CC[C@H]1CN(C(C)c2nc(C3CC3)no2)[C@H](CC)CN1c1nc(=O)n(C)c2ccc(C#N)nc12 (stereo partly drawn) [Example 361, 4-((2S,5R)-4-(1-(3-cyclopropyl-1,2,4-oxadiazol-5-yl)ethyl)-2,5-diethylpiperazin-1-yl)-1-methyl-2-oxo-1,2-dihydropyrido[3,2-d]pyrimidine-6-carbonitrile] | – | – | 22 nM | 5 nM | 260 nM | – | – | –
CC[C@H]1CN(C(C)c2ccc(CN3CCC(F)(F)CC3)cc2)[C@H](CC)CN1c1nc(=O)n(C)c2ccc(C#N)nc12 (stereo partly drawn) [Example 278, 4-((2S,5R)-4-(1-(4-((4,4-difluoropiperidin-1-yl)methyl)phenyl)ethyl)-2,5-diethylpiperazin-1-yl)-1-methyl-2-oxo-1,2-dihydropyrido[3,2-d]pyrimidine-6-carbonitrile] | – | 2860 nM | – | – | – | – | – | 1150 nM

Continued, in another order:

IC50 (human DGKζ; [2]) | IC50 (human DGKα; [3]) | IC50 (human DGKζ; [6]) | IC50 (human DGKα; [7]) | EC50 [1, 8] | EC50 ([1]; Homo sapiens, 24 h, human whole blood, anti-CD3 plus anti-CD28 stimulation, 24 hours, read-out: IFN-γ Whole Blood EC50) | SMILES | EC50 [1, 4] | EC50 [1, 5]
3960 nM | 53 nM | – | – | – | – | CCC(c1ccc(C)cc1)N1C[C@H](CC)N(c2nc(=O)n(C)c3ccc(C#N)nc23)C[C@H]1CC (stereo partly drawn) [Example 237, 4-((2S,5R)-2,5-diethyl-4-(1-(p-tolyl)propyl)piperazin-1-yl)-1-methyl-2-oxo-1,2-dihydropyrido[3,2-d]pyrimidine-6-carbonitrile] | 1430 nM | –
110 nM | 15 nM | – | – | – | – | CCC(c1ccc(Cl)cc1F)N1C[C@H](CC)N(c2nc(=O)n(C)c3ccc(C#N)nc23)C[C@H]1CC (stereo partly drawn) [Example 238, 4-((2S,5R)-4-(1-(4-chloro-2-fluorophenyl)propyl)-2,5-diethylpiperazin-1-yl)-1-methyl-2-oxo-1,2-dihydropyrido[3,2-d]pyrimidine-6-carbonitrile] | 23 nM | –
12700 nM | 10 nM | – | – | – | – | CC[C@H]1CN(C(C)c2ccc(CO)cc2)[C@H](CC)CN1c1nc(=O)n(C)c2ccc(C#N)nc12 (stereo partly drawn) [Example 271, 4-((2S,5R)-2,5-Diethyl-4-(1-(4-(hydroxymethyl)phenyl)ethyl)piperazin-1-yl)-1-methyl-2-oxo-1,2-dihydropyrido[3,2-d]pyrimidine-6-carbonitrile] | 14400 nM | –
2320 nM | 8 nM | – | – | – | – | CC[C@H]1CN(C(C)c2ccc(CO)cc2)[C@H](CC)CN1c1nc(=O)n(C)c2ccc(C#N)nc12 (stereo partly drawn) [Example 270, 4-((2S,5R)-2,5-Diethyl-4-(1-(4-(hydroxymethyl)phenyl)ethyl)piperazin-1-yl)-1-methyl-2-oxo-1,2-dihydropyrido[3,2-d]pyrimidine-6-carbonitrile] | 1390 nM | –
950 nM | 59 nM | – | – | – | – | CCC(c1ccc(OC)cc1)N1C[C@H](CC)N(c2nc(=O)n(C)c3ccc(C#N)nc23)C[C@H]1CC (stereo partly drawn) [Example 213, 4-((2S,5R)-2,5-diethyl-4-(1-(4-methoxyphenyl)propyl)piperazin-1-yl)-1-methyl-2-oxo-1,2-dihydropyrido[3,2-d]pyrimidine-6-carbonitrile] | 190 nM | –
52 nM | 61 nM | – | – | – | – | CC[C@H]1CN(C(C)c2ccc(C3CC3)nc2)[C@H](CC)CN1c1nc(=O)n(C)c2ccc(C#N)nc12 (stereo partly drawn) [Example 192, 4-((2 S,5R)-4-(1-(6-cyclopropylpyridin-3-yl)ethyl)-2,5-diethylpiperazin-1-yl)-1-methyl-2-oxo-1,2-dihydropyrido[3,2-d]pyrimidine-6-carbonitrile] | 110 nM | –
46 nM | 110 nM | – | – | – | – | CCC(c1ccc(C#N)cc1)N1C[C@H](CC)N(c2nc(=O)n(C)c3ccc(C#N)nc23)C[C@H]1CC (stereo partly drawn) [Example 220, 4-((2S,5R)-4-(1-(4-cyanophenyl)propyl)-2,5-diethylpiperazin-1-yl)-1-methyl-2-oxo-1,2-dihydropyrido[3,2-d] pyrimidine-6-carbonitrile] | 81 nM | –
28 nM | 83 nM | – | – | – | – | CC[C@H]1CN(C(C)c2ccc(C(=O)OC)cc2)[C@H](CC)CN1c1nc(=O)n(C)c2ccc(C#N)nc12 (stereo partly drawn) [Example 266, methyl 4-(1-((2R,5S)-4-(6-cyano-1-methyl-2-oxo-1,2-dihydropyrido[3,2-d]pyrimidin-4-yl)-2,5-diethylpiperazin-1-yl)ethyl)benzoate] | 180 nM | –
3740 nM | 61 nM | – | – | – | – | CC[C@@H]1CN(c2nc(=O)n(C)c3ccc(C#N)nc23)[C@@H](CC)CN1Cc1ccc(C(F)(F)F)cc1 [Example 205, 4-((2S,5R)-2,5-diethyl-4-(4-(trifluoromethyl)benzyl)piperazin-1-yl)-1-methyl-2-oxo-1,2-dihydropyrido[3,2-d] pyrimidine-6-carbonitrile] | – | 830 nM
